{"source": "patent US10196436B2", "about": "“Inhibitors of the fibroblast growth factor receptor” (BLUEPRINT MEDICINES CORPORATION, priority 2012, dated 2019)", "key": {"[1]": {"tested_on": "Hep3B cells", "test": "Induction of apoptosis, Caspase-Glo3/7 assay in Hep3B cells", "format": "cell-based", "conditions": "6 hours", "experimental": "Hep3B cells were seeded at 20 k/well in 96-well white plates in 200 ul of DMEM/5% FBS overnight. The next day compound was added at a final DMSO concentration of 0.1% and incubated for 6 hours. Caspase activity was measured according to manufacture instruction (Caspase-Glo3/7 Assay (Promega)). Briefly, 100 ul of Caspase-Glo3/7 reagent was added to each well and incubated for 1 hour in the dark. Luminescence was measured using EnVision."}, "[2]": {"tested_on": "Hep3B xenograft tumors", "test": "Hep3B liver cancer cell subcutaneous xenograft model, tumor growth inhibition", "format": "in vivo, Mus Musculus", "conditions": "Day 4 to Day 19, nude mice", "experimental": "[…] female nude mice (Mus Musculus) age 6 to 8 weeks were used. Tumor cell culture and inoculation: Hep3B cells were cultured with EMEM medium (Invitrogen, USA) supplemented with 10% FBS (Gibco, Australia). The cells were harvested in 90% confluence, and the viability was no less than 90%. Mice were implanted subcutaneously (s.c.) with 200 μL of 10×10^6 Hep3B cells in 50% Matrigel in the right flank at the beginning of the study.\nAnimal grouping and dosing schedule: Ten days after cell implantation, when tumors reached an average volume of 199 mm^3, 45 mice were selected based on tumor volume and randomly assigned to 5 treatment groups (n=9). The day of randomization was denoted as Do and the treatment was started from then on.\n(§1) Tumor volume and body weight measurements: Tumor size was measured twice per week in two dimensions using a caliper, and the volume was expressed in mm^3 using the formula: V=0.5 a×b^2 where a and b were the long and short diameters of the tumor, respectively. Body weight was measured at least twice weekly."}, "[3]": {"format": "in vivo", "conditions": "Hep3B-bearing nude mice, entire study period, current dosages and dosing schedule", "experimental": "as §1\nBody weight change (%) of Hep3B-bearing nude mice: FIG. 8 is a line graph depicting the body weight change (%) during the entire study period."}, "[4]": {"tested_on": "MDA-MB-453 cells, which harbor an activating FGFR4 mutation", "test": "Cellular potency: phosphorylation of Erk in MDA-MB-453 cells (immunoblot)", "conditions": "Homo sapiens, MDA-MB-453, 1 h, read-out: Potency (pErk IC50)", "quoted_text": "Dose response in MDA-MB-453 cells, which harbor an activating FGFR4 mutation, was measured as follows. Briefly, MDA-MB-453 cells were seeded at 2.5×10^6 cells/6 well, and starved overnight. Compounds were added at varying concentrations (3000, 1000, 300, 100, and 30 nM) for 1 hour. Samples were collected and lysed for immunoblot analysis. The phosphorylation of Erk was measured and the average pErk value of three replicates was plotted with three parameter dose-response (inhibition) curve fit using Prism GraphPad software, which was used to determine the IC50 values."}}, "note": "Entries after “also recorded” stand apart in the source; their conditions may differ."}
{"smiles": "C=CC(=O)Nc1cccc(C)c1Nc1ncc2cc(-c3c(Cl)c(OC)cc(OC)c3Cl)ccc2n1", "note": "[COMPOUND 25, N-(2-((6-(2,6-dichloro-3,5-dimethoxyphenyl)quinazolin-2-yl)amino)-3-methylphenyl)acrylamide]", "values": [{"measurement": "induction of apoptosis (caspase activity)", "setting": "[1]", "result": "potent induction of apoptosis"}, {"measurement": "tumor volume vs vehicle group", "setting": "[2]; 100 mg/kg PO BID", "result": "Statistically significant reduction of tumor volumes; also recorded: regressed"}, {"measurement": "tumor volume vs vehicle group", "setting": "[2]; 300 mg/kg PO BID", "result": "Statistically significant reduction of tumor volumes; also recorded: almost disappeared"}, {"measurement": "body weight change / tolerability", "setting": "[3]", "result": "well tolerated"}, {"measurement": "IC50", "setting": "[4]", "result": "1 to 10", "unit": "nM"}]}
